Where two headings read alike, the source gives them in different places.
What was measured:
P. falciparum Dd2-B2 = assay: 72-hour flow cytometry EC50 assay, Dd2-B2 parental line; format: cell-based, Plasmodium falciparum; conditions: Plasmodium falciparum, DD2, read-out: EC50 Dd2-B2 parental line
Procedure: (§1) Stocks of SAL-0010003 (5-benzyl), SAL-0010355 (5-aryl), and SAL-0010419 (2-alkyl) were made at 10 and 1 mM in DMSO. Aliquots in use were stored at −20°C, and long-term storage was at −80°C. All in vitro studies were done such that the final DMSO concentration was <0.5%. P. falciparum ABS parasites were cultured at 3% hematocrit in human O+ RBCs in RPMI 1640 medium, supplemented with 25 mM Hepes, 50 mg L-hypoxanthine, 2 mM L-glutamine, 0.225% sodium bicarbonate, 0.5% (w/v) AlbuMAX II (Invitrogen) and gentamycin (10 μg/ml), in modular incubator chambers (Billups-Rothenberg) at 5% O2, 5% CO2, and 90% N2 at 37°C. Dd2-B2 (obtained from T. Wellems, National Institute of Allergy and Infectious Diseases, National Institutes of Health) is a genetically homogenous line that was cloned from Dd2 by limiting dilution. To define the EC50 and EC90 values of ABS parasites, Dd2-B2 ring-stage cultures at 0.2% parasitemia and 1% hematocrit were exposed for 72 hours to a range of 10 drug concentrations that were twofold serially diluted in duplicates along with drug-free controls. Parasite survival was assessed by flow cytometry on an iQue flow cytometer (Sartorius) using SYBR Green and MitoTracker Deep Red FM (Life Technologies) as nuclear stain and vital dyes, respectively. After determination of the EC50 and EC90 values for the three compounds with the P. falciparum Dd2-B2 clone, one single-step selection was set up using 2 × 10^5 parasites in each well of a 96-well plate at a starting concentration of 3× EC90. Parasites were cleared from the culture rapidly, and cultures were screened three times weekly by flow cytometry and counted as positive for recrudescence when the overall parasitemia reached 0.3% and the parasites were visible on a blood smear. DNA was extracted from recrudescent lines using a QIAGEN QIAamp Blood Mini Kit, and libraries were prepared with the Illumina DNA Prep kit for whole-genome sequencing on the Illumina MiSeq using a V3 2 × 300–base pair flow cell.

[1] = system: P. falciparum Dd2-B2 lines selected under drug pressure; assay: 72-hour flow cytometry EC50 assay, lines selected under drug pressure; format: cell-based, Plasmodium falciparum; conditions: for EC50: Plasmodium falciparum
Procedure: Three examples of an additional compound series developed independently [NPD-2958, NPD-3518 ([31]), and NPD-3738; fig.
as §1

HepG2 cells = assay: HepG2 cytotoxicity; format: cell-based
Description: Table 1. Key activity data for the three main chemical subseries against ABS parasites, parasite fractions, and HepG2 cells. ND, not determined; ×/÷ is the geometric mean with geometric SD. | column: HepG2 EC50 (nM) (selectivity index)

[2] = system: PDE activity in cell extracts of malaria parasites; design: method as in PMID 16038615, PMID 25951195; conditions: read-out: IC50 against PDE activity in cell extracts; cited from earlier work
P. falciparum 3D7 = assay: Ex vivo 72-hour SYBR Green assay, 3D7 control (Uganda); format: cell-based, Plasmodium falciparum; conditions: Plasmodium falciparum, 3D7, read-out: EC50 lab strain 3D7
Procedure: (§2) Samples were delivered to the adjacent IDRC laboratory at Tororo District Hospital or transported by car from Masafu Hospital on the day of collection for storage of blood spots on filter paper (for isolation of nucleic acids) and initiation of ex vivo culture of malaria parasites. […] Before assay, 10 mM antimalarial stock compounds were diluted as necessary in DMSO and stored at −20°C. […] Compounds were serially diluted threefold in a 96-well assay plate in complete medium to a final volume of 50 μl, in columns 1 to 10, with concentrations optimized to capture full dose-response curves. Column 11 contained compound-free controls, while column 12 contained uninfected human RBC controls. Parasite culture (150 μl) was added to columns 1 to 11 of the assay plate with a final volume of 200 μl per well, 0.2% parasitemia, and 2% hematocrit. […] Thawed plates were incubated with SYBR Green lysis buffer for 1 hour in the dark as previously reported ([62]). Fluorescence was quantified using a BMG Fluostar Optima plate reader at an excitation of 485 nm and an emission of 530 nm, and data were plotted using GraphPad Prism 7. The data were curve fit with a variable slope function to estimate IC50 values. For each isolate, a Z′ factor to assess assay quality was calculated from positive controls (eight drug-free wells) and negative controls (eight parasite-free, red cell control wells). Z′ values over 0.5 were considered good assays, but each curve was also examined by eye for suitability. Some assays with Z′ below 0.5 may be considered valid depending on factors such as the SE of the curve-fit IC50.

P. falciparum Dd2 = assay: Ex vivo 72-hour SYBR Green assay, Dd2 control (Uganda); format: cell-based, Plasmodium falciparum; conditions: Plasmodium falciparum, DD2, read-out: EC50 lab strain Dd2
Procedure: as §2

[3] = system: P. falciparum clinical isolates from Tororo and Busia Districts of Uganda; assay: Ex vivo 72-hour SYBR Green assay, Ugandan clinical isolates; format: cell-based, Plasmodium falciparum; conditions: Plasmodium falciparum
Description: Clinical isolates were from the Tororo District of Uganda, located in the central-eastern part of the county near the Kenya border. Tororo and surrounding areas have high-intensity, year-round malaria transmission. […] Patients reporting use of antimalarial treatment within the previous 30 days or with evidence of an infection with other Plasmodium species were excluded. Informed consent was obtained from patients and/or primary care givers (depending on age); children aged 8 to 17 years provided assent. Two to 5 ml of blood was collected by venipuncture in a heparin tube. Samples were delivered to the adjacent IDRC laboratory at Tororo District Hospital or transported by car from Masafu Hospital on the day of collections for storage of blood spots on filter paper (for isolation of nucleic acids) and initiation of ex vivo culture of malaria parasites. Treatment involved a standard therapeutic regimen for uncomplicated falciparum malaria, which was a 3-day course of the artemisinin-based combination therapy (ACT), artemether-lumefantrine. In Uganda, at the time of sampling, there was widespread resistance to the antifolate drugs due to mutant pfdhfr/pfdhps alleles. […] Chloroquine was prepared at 10 mM in water. Stock solutions were stored at −20°C. Working solutions were freshly prepared from a single aliquot within 4 hours of the susceptibility test and stored at 4°C.
as §2

[4] = system: P. falciparum clinical isolates from Porto Velho, Brazil; assay: Ex vivo schizont maturation assay, Brazilian clinical isolates; format: cell-based, Plasmodium falciparum; conditions: Plasmodium falciparum
Procedure: Only monoinfected patients with P. falciparum with parasitemia between 2000 and 80,000 parasites/μl and with at least 70% of ring-stage parasites were recruited. Patients who had used an antimalarial in the previous month and/or presented with symptoms of severe malaria were excluded from the study. The study cohort comprised 24 patients living in this highly endemic area. A peripheral venous blood sample (5 ml) was collected from each individual by venipuncture in heparin-containing tubes and immediately used in the ex vivo drug susceptibility assay using preprepared plates containing diluted antimalarial compounds. […] Last, 20 μl of each dilution was transferred into the ex vivo assay plate and diluted 10-fold into the final assay medium containing parasites. For the infected blood preparation, 5 ml of whole blood was centrifuged at 800g for 10 min, and the plasma and buffy coat were removed. […] Control assays on a 3D7 laboratory isolate were performed with medium supplemented with human serum (20%). The iRBC (180 μl per well) were distributed in the predosed drug plate. […] Control wells containing drug-free iRBCs were cultured with complete medium. The parasite-drug incubation was terminated when 40% of the ring stages reached the schizont stage (at least three distinct nuclei per parasite) in the drug-free control wells. Thick blood films were then made from each well, dried, stained with 5% Giemsa solution for 30 min, and examined microscopically. The number of schizonts per 200 asexual-stage parasites was determined for each drug concentration and then normalized by comparing with the schizont number in the drug-free control wells [considered as 100% ([64])]. The half-maximal drug inhibitory response (EC50) was estimated by curve fitting using software from the OriginLab Corporation, Northampton, MA, USA and comparing with parasite growth in the drug-free controls.

[5] = system: P. falciparum (clone 3D7); assay: Parasite reduction ratio (PRR) assay; format: cell-based, Plasmodium falciparum; conditions: for Slope: 10× EC50, 3D7 killing profile
Procedure: The in vitro killing profile of compounds was determined by monitoring the ability of parasites to recover following treatment with a compound of interest using a previously reported approach ([50]), which allowed calculation of the PRR ([51]). […] To quantify the number of viable parasites following treatment, four independent sets of threefold serial dilutions were performed on each sample, which were assayed for the presence or absence of parasites after 28 days using the LDH assay, and the number of viable parasites was determined by the number of wells showing growth. PRR and PCT99.9% were calculated as previously reported ([50]).

[6] = read-out: EC50 clinical isolates, Gmean (geometric mean)
[7] = read-out: EC50 clinical isolates, Median
[8] = read-out: EC50 clinical isolates, Range

With `CC(C)COc1ccc(C(=O)N2CC(N(C)C)C2)cc1-c1nc2c(C(C)C)n[nH]c2c(=O)[nH]1` [SAL-0010355] the EC50 (P. falciparum Dd2-B2) was 69.2 nM, the EC50 ([1]; DD2, read-out: EC50, line selected with SAL-0010355, Well B7) was 430 nM and the EC50 ([1]; DD2, read-out: EC50, line selected with SAL-0010355, Well D7) was 468 nM. The EC50 ([1]; DD2, read-out: EC50, line selected with SAL-0010355, Well D9) was 371 nM, the “Mean fold change in EC50” value ([1]; selected lines vs Dd2-B2 parental line, ±SD) was 6.1 ± 0.7 fold and the “EC50 shift, line selected with SAL-0010355, Well B7” value ([1]; vs Dd2-B2) was 6.2 fold. The “EC50 shift, line selected with SAL-0010355, Well D7” value ([1]; vs Dd2-B2) was 6.8 fold, the “EC50 shift, line selected with SAL-0010355, Well D9” value ([1]; vs Dd2-B2) was 5.4 fold and the EC50 (HepG2 cells; Homo sapiens, HepG2) was over 25000 nM. For the same compound, the HepG2 selectivity index (HepG2 cells; value in brackets after HepG2 EC50) was 1,185.
For `Cn1c(=O)c2[nH]cnc2n(C)c1=O` [theophylline], the IC50 [2] is listed as over 100000 nM.
For `COc1ccc(C2CNC(=O)C2)cc1OC1CCCC1` (stereo not shown) [rolipram], the IC50 [2] is listed as over 100000 nM.
For `CC(C)Cn1c(=O)n(C)c(=O)c2[nH]cnc21` [3-isobutyl-1-methylxanthine], the IC50 [2] is listed as over 100000 nM.
`CCN(CC)CCCC(C)Nc1ccnc2cc(Cl)ccc12` (stereo not shown) [Chloroquine, reference compound] showed an EC50 (P. falciparum 3D7) of 9.4 nM, an EC50 (P. falciparum Dd2) of 347 nM and an EC50 [3, 6] of 13 nM. It also gave an EC50 [3, 7] of 14 nM, an EC50 [3, 8] of 2 to 25 nM and an EC50 ([4]; read-out: EC50 range, clinical isolates) of 626 to 2600 nM. The EC50 ([4]; read-out: Median EC50, clinical isolates) was 1200 nM, the Lag phase ([5]; 10× EC50, 3D7) was 0 h and the “PCT99.9% (hours taken to kill 99.9% of the parasites)” value ([5]; 10× EC50, 3D7) was 39.0 h. It also gave a Slope [5] of −0.0717 ± 0.0037.
For `CCc1nc(N)nc(N)c1-c1ccc(Cl)cc1` [Pyrimethamine, reference compound], the EC50 (P. falciparum 3D7) was 46 nM, the EC50 (P. falciparum Dd2) was 21700 nM and the EC50 [3, 6] was 41600 nM. The EC50 [3, 7] was 39300 nM, the EC50 [3, 8] was 15900 to 196000 nM and the EC50 ([3]; read-out: Geometric mean EC50, Ugandan isolates (Fig. 3B)) was 41600 nM. The Lag phase ([5]; 10× EC50, 3D7) was 24 h, the “Log PRR” value ([5]; 10× EC50, 3D7) was 3.2 and the “PCT99.9% (hours taken to kill 99.9% of the parasites)” value ([5]; 10× EC50, 3D7) was 63.1 h. For the same compound, the Slope [5] was −0.0667 ± 0.0059.
For `Cn1c(=O)c2c(ncn2C)n(C)c1=O` [caffeine], the IC50 [2] is listed as over 100000 nM.

Source: paper PMC11623267, “Inhibitors of malaria parasite cyclic nucleotide phosphodiesterases block asexual blood-stage development and mosquito transmission” (Science Advances, 2024)
